Data published in patent US7888464B2, “Hepatitis C virus inhibitors” (Bristol-Myers Squibb Company, priority 2006, dated 2011).
Read-outs that look alike come from different tables or passages of the source.

What was measured:
[1] = system: HCV replicon (strain 1b) in HUH-7 cells; assay: HCV replicon FRET assay; assay type: cell-based; settings: Hepatitis C virus
Excerpt: An HCV replicon whole cell system was established as described by Lohmann V, Korner F, Koch J, Herian U, Theilmann L, Bartenschlager R., Science 285(5424): 110-3 (1999). This system enabled us to evaluate the effects of our HCV Protease compounds on HCV RNA replication. Briefly, using the HCV strain 1b sequence described in the Lohmann paper (Assession number: AJ238799), an HCV cDNA was synthesized by Operon Technologies, Inc. (Alameda, Calif.), and the full-length replicon was then assembled in plasmid pGem9zf(+) (Promega, Madison, Wis.) using standard molecular biology techniques. The replicon consists of (i) the HCV 5′ UTR fused to the first 12 amino acids of the capsid protein, (ii) the neomycin phosphotransferase gene (neo), (iii) the IRES from encephalomyocarditis virus (EMCV), and (iv) HCV NS3 to NS5B genes and the HCV 3′ UTR. Plasmid DNAs were linearized with ScaI and RNA transcripts were synthesized in vitro using the T7 MegaScript transcription kit (Ambion, Austin, Tex.) according to manufacturer's directions. In vitro transcripts of the cDNA were transfected into the human hepatoma cell line, HUH-7. […] Resulting cell lines were characterized for positive and negative strand RNA production and protein production over time.
The HCV replicon FRET assay was developed to monitor the inhibitory effects of compounds described in the disclosure on HCV viral replication. HUH-7 cells, constitutively expressing the HCV replicon, were grown in Dulbecco's Modified Eagle Media (DMEM) (Gibco-BRL) containing 10% Fetal calf serum (FCS) (Sigma) and 1 mg/ml G418 (Gibco-BRL). Cells were seeded the night before (1.5×10^4 cells/well) in 96-well tissue-culture sterile plates. Compound and no compound controls were prepared in DMEM containing 4% FCS, 1:100 Penicillin/Streptomysin (Gibco-BRL), 1:100 L-glutamine and 5% DMSO in the dilution plate (0.5% DMSO final concentration in the assay). Compound/DMSO mixes were added to the cells and incubated for 4 days at 37° C. After 4 days, cells were first assessed for cytotoxicity using alamar Blue (Trek Diagnotstic Systems) for a CC50 reading. The toxicity of compound (CC50) was determined by adding 1/10th volume of alamar Blue to the media incubating the cells. After 4 h, the fluorescence signal from each well was read, with an excitation wavelength at 530 nm and an emission wavelength of 580 nm, using the Cytofluor Series 4000 (Perspective Biosystems). Plates were then rinsed thoroughly with Phosphate-Buffered Saline (PBS) (3 times 150 μl). The cells were lysed with 25 μl of a lysis assay reagent containing an HCV protease substrate (5× cell Luciferase cell culture lysis reagent (Promega #E153A) diluted to 1× with distilled water, NaCl added to 150 mM final, the FRET peptide substrate (as described for the enzyme assay above) diluted to 10 μM final from a 2 mM stock in 100% DMSO. The plate was then placed into the Cytofluor 4000 instrument which had been set to 340 nm excitation/490 nm emission, automatic mode for 21 cycles and the plate read in a kinetic mode. EC50 determinations were carried out as described for the IC50 determinations.

[2] = target: T1, HCV NS3/4A protease complex, BMS strain (genotype 1a) (UniProt P27958, species not given/STRAIN_BMS); assay: FRET peptide assay to monitor HCV NS3/4A proteolytic activity (BMS strain); assay type: biochemical; settings: NS3/4A BMS strain, read-out: HCV Protease (IC50)
T1 construct: "DNA encoding the recombinant HCV NS3/4A protease complex (amino acids 1027 to 1711) for these strains" (said of H77 and J4L6S, not expressly of BMS); given for the H77/J4L6S constructs only
T1 sequence (P27958 1027-1657, stated change not applied, one chain of several): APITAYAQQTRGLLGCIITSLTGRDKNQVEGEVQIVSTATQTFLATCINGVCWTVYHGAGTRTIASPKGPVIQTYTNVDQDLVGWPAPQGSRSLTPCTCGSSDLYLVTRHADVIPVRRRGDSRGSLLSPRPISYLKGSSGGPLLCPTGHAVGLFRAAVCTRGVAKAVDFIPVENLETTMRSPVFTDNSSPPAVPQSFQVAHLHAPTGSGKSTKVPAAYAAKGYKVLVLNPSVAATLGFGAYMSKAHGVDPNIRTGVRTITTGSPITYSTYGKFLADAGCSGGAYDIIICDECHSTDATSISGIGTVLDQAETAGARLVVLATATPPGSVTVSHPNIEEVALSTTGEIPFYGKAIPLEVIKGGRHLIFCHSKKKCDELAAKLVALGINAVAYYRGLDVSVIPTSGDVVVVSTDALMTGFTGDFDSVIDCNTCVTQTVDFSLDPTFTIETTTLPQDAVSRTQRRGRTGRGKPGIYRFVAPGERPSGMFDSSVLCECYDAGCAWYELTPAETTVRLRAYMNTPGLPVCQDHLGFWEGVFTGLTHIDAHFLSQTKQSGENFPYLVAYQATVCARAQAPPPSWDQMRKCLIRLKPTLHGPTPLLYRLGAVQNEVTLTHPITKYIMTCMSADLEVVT
Excerpt: HCV NS3 protease complexes, derived from the BMS strain, H77 strain or J4L6S strain, were generated, as described below. These purified recombinant proteins were generated for use in a homogeneous assay (see below) to provide an indication of how effective compounds of the present disclosure would be in inhibiting HCV NS3 proteolytic activity.
Serum from an HCV-infected patient was obtained from Dr. T. Wright, San Francisco Hospital. An engineered full-length cDNA (compliment deoxyribonucleic acid) template of the HCV genome (BMS strain) was constructed from DNA fragments obtained by reverse transcription-PCR(RT-PCR) of serum RNA (ribonucleic acid) and using primers selected on the basis of homology between other genotype la strains. From the determination of the entire genome sequence, a genotype la was assigned to the HCV isolate according to the classification of Simmonds et al. (See P Simmonds, K A Rose, S Graham, S W Chan, F McOmish, B C Dow, E A Follett, P L Yap and H Marsden, J. Clin. Microbiol., 31(6), 1493-1503 (1993)). […] The infectious clones, H77 (1a genotype) and J4L6S (1b genotype) were obtained from R. Purcell (NIH) and the sequences are published in Genbank (AAB67036, see Yanagi, M., Purcell, R. H., Emerson, S. U. and Bukh, J. Proc. Natl. Acad. Sci. U.S.A. 94(16), 8738-8743 (1997); AF054247, see Yanagi, M., St Claire, M., Shapiro, M., Emerson, S. U., Purcell, R. H. and Bukh, J, Virology 244 (1), 161-172. (1998)).
The H77 and J4L6S strains were used for production of recombinant NS3/4A protease complexes. DNA encoding the recombinant HCV NS3/4A protease complex (amino acids 1027 to 1711) for these strains were manipulated as described by P. Gallinari et al. (see Gallinari P, Paolini C, Brennan D, Nardi C, Steinkuhler C, De Francesco R. Biochemistry. 38(17):5620-32, (1999)). Briefly, a three-lysine solubilizing tail was added at the 3′-end of the NS4A coding region. The cysteine in the P1 position of the NS4A-NS4B cleavage site (amino acid 1711) was changed to a glycine to avoid the proteolytic cleavage of the lysine tag. Furthermore, a cysteine to serine mutation was introduced by PCR at amino acid position 1454 to prevent the autolytic cleavage in the NS3 helicase domain. The variant DNA fragment was cloned in the pET21b bacterial expression vector (Novagen) and the NS3/4A complex was expressed in Escherichia. coli strain BL21 (DE3) (Invitrogen) following the protocol described by P. Gallinari et al. (see Gallinari P, Brennan D, Nardi C, Brunetti M, Tomei L, Steinkuhler C, De Francesco R., J. Virol. 72(8):6758-69 (1998)) with modifications. Briefly, the NS3/4A protease complex expression was induced with 0.5 millimolar (mM) Isopropyl β-D-1-thiogalactopyranoside (IPTG) for 22 hours (h) at 20° C. A typical fermentation (1 Liter (L)) yielded approximately 10 grams (g) of wet cell paste. The cells were resuspended in lysis buffer (10 mL/g) consisting of 25 mM N-(2-Hydroxyethyl)piperazine-N′-(2-Ethane Sulfonic acid) (HEPES), pH 7.5, 20% glycerol, 500 mM Sodium Chloride (NaCl), 0.5% Triton X-100, 1 microgram/milliliter (“μg/mL”) lysozyme, 5 mM Magnesium Chloride (MgCl2), 1 μg/ml DnaseI, 5 mM β-Mercaptoethanol (βME), Protease inhibitor-Ethylenediamine Tetraacetic acid (EDTA) free (Roche), homogenized and incubated for 20 minutes (min) at 4° C. The homogenate was sonicated and clarified by ultra-centrifugation at 235000 g for 1 hour (h) at 4° C. Imidazole was added to the supernatant to a final concentration of 15 mM and the pH adjusted to 8.0. The crude protein extract was loaded on a Nickel-Nitrilotriacetic acid (Ni-NTA) column pre-equilibrated with buffer B (25 mM HEPES, pH 8.0, 20% glycerol, 500 mM NaCl, 0.5% Triton X-100, 15 mM imidazole, 5 mM βME). The sample was loaded at a flow rate of 1 mL/min. The column was washed with 15 column volumes of buffer C (same as buffer B except with 0.2% Triton X-100). The protein was eluted with 5 column volumes of buffer D (same as buffer C except with 200 mM Imidazole). […]

[3] = Huh-7, read-out: HCV Pro Replicon (EC50)
[4] = activity range symbols of Table 2

| SMILES | EC50 [1, 3] | IC50 [2, 4] | EC50 ([1]; Huh-7, HCV replicon, numeric cells of Table 2, read-out: HCV Pro Replicon (EC50)) | IC50 ([2]; numeric cells of Table 2) |
| --- | --- | --- | --- | --- |
| C=C[C@@H]1C[C@]1(NC(=O)[C@@H]1C[C@@](OC)(c2ccc(-c3ccccc3)cc2)CN1C(=O)[C@H](CC(C)C)NC(=O)OC(C)(C)C)C(=O)NS(=O)(=O)C1CC1 [Cmpd 203, {(S)-1-[(2S,4R)-4-Biphenyl-4-yl-2-((S)-(1R,2S)-1-cyclopropanesulfonylaminocarbonyl-2-vinyl-cyclopropylcarbamoyl)-4-methoxy-pyrrolidine-1-carbonyl]-3-methyl-butyl}-carbamic acid tert-butyl ester] | 50 to 500 nM | 1 to 50 nM |  |  |
| C=C[C@@H]1C[C@]1(NC(=O)[C@@H]1C[C@@](OC)(c2ccc(-c3ccccc3)cc2)CN1C(=O)[C@@H](NC(=O)OC(C)(C)C(F)(F)F)C(C)(C)C)C(=O)NS(=O)(=O)C1CC1 [Cmpd 200, {(S)-1-[(2S,4R)-4-Biphenyl-4-yl-2-((S)-(1R,2S)-1-cyclopropanesulfonylaminocarbonyl-2-vinyl-cyclopropylcarbamoyl)-4-methoxy-pyrrolidine-1-carbonyl]-2,2-dimethyl-propyl}-carbamic acid 2,2,2-trifluoro-1,1-dimethyl-ethyl ester] | 1 to 50 nM | 1 to 50 nM |  |  |
| C=C[C@@H]1C[C@]1(NC(=O)[C@@H]1C[C@@](OC)(c2ccc(-c3ccccc3)cc2)CN1C(=O)[C@@H](Nc1cccc(OC)c1)C(C)(C)C)C(=O)NS(=O)(=O)C1CC1 [Cmpd 207, (2S,4R)-4-Biphenyl-4-yl-4-methoxy-1-[(S)-2-(3-methoxy-phenylamino)-3,3-dimethyl-butyryl]-pyrrolidine-2-carboxylic acid ((1R,2S)-1-cyclopropanesulfonylaminocarbonyl-2-vinyl-cyclopropyl)-amide] | 1 to 50 nM | 1 to 50 nM |  |  |
| C=CCCCCC[C@H](NC(=O)OC(C)(C)C)C(=O)N1C[C@](OC)(c2ccc(-c3ccccc3)cc2)C[C@H]1C(=O)N[C@]1(C(=O)NS(=O)(=O)C2CC2)C[C@H]1C=C [Cmpd 107] | > 500 nM | 50 to 500 nM |  |  |
| C=C[C@@H]1C[C@]1(NC(=O)[C@@H]1C[C@@](OC)(c2ccc(-c3ccccc3)cc2)CN1C(=O)[C@@H](Nc1ccc(F)c(F)c1)C(C)(C)C)C(=O)NS(=O)(=O)C1CC1 [Cmpd 209, (2S,4R)-4-Biphenyl-4-yl-1-[(S)-2-(3,4-difluoro-phenylamino)-3,3-dimethyl-butyryl]-4-methoxy-pyrrolidine-2-carboxylic acid ((1R,2 S)-1-cyclopropanesulfonylaminocarbonyl-2-vinyl-cyclopropyl)-amide] | 1 to 50 nM | 1 to 50 nM |  |  |
| C=C[C@@H]1C[C@]1(NC(=O)[C@@H]1C[C@@](OC)(c2ccc(-c3ccccc3)cc2)CN1C(=O)[C@@H](NC(=O)OC12CC3CC(CC(C3)C1)C2)C(C)(C)C)C(=O)NS(=O)(=O)C1CC1 [Cmpd 204, {(S)-1-[(2S,4R)-4-Biphenyl-4-yl-2-((S)-(1R,2S)-1-cyclopropanesulfonylaminocarbonyl-2-vinyl-cyclopropylcarbamoyl)-4-methoxy-pyrrolidine-1-carbonyl]-2,2-dimethyl-propyl}-carbamic acid adamantan-1-yl ester] | 1 to 50 nM | 1 to 50 nM |  |  |
| C=C[C@@H]1C[C@]1(NC(=O)[C@@H]1C[C@@](OC)(c2ccc(-c3ccccc3)cc2)CN1C(=O)[C@@H](NC(=O)OC(C)(C)C)C(C)(C)C)C(=O)NS(=O)(=O)C1CC1 [Cmpd 106, tert-butyl (S)-1-((2S,4R)-4-(biphenyl-4-yl)-2-((1R,2S)-1-(cyclopropylsulfonylcarbamoyl)-2-vinylcyclopropylcarbamoyl)-4-methoxypyrrolidin-1-yl)-3,3-dimethyl-1-oxobutan-2-ylcarbamate] |  |  | 11 nM | 1 nM |
